# Reference: patent US20230338315A1, “METHOD OF PRODUCING PHARMACEUTICAL COCRYSTALS FOR ADDITIVE MANUFACTURING” (BOARD OF REGENTS, THE UNIVERSITY OF TEXAS SYSTEM, priority 2020, published 2023)
# Key:
# [1] = Preformulation studies: solubility in solvents; type: physicochemical; details: for Soluble in solvent ET-Acetate: solvent ethyl acetate
# Experimental: Both the drug and conformer were soluble in ethyl acetate. Ethyl acetate was used to prepare pure MA-SAC cocrystals using slow solvent evaporation. Briefly, 1:1 molar ratio of MA and SAC were mixed using a mortar and pestle. This blend was dissolved in ethyl acetate at 50° C. in a glass beaker using a magnetic stirrer-hotplate. Once the physical mixture was dissolved, the solvent was placed on an ice bath to induce nucleation of the cocrystals, the beaker was then placed in fume hood until all the solvent was evaporated. After the solvent was evaporated, the crystals were placed in an oven at 60° C. to remove any residual solvent. The resultant crystals were tested for modulated differential scanning calorimetry. A clear phase separation was observed where crystals with two different habits were developed. Samples for each phase were collected and exposed to thermal analysis.
# [2] = cited from earlier work
# [3] = cited from earlier work; remark: listed apart in the source
# [4] = HPLC with mass spectrophotometer of hot melt extruded mefenamic acid (degradant identification); type: physicochemical
# [5] = Preformulation studies with Kollidon VA64 (decomposition of mefenamic acid); type: physicochemical; details: presence of Kollidon VA64
Soluble in solvent ACN [1],Soluble in solvent Et—OH [1],Soluble in solvent Me—OH [1],Soluble in solvent ET-Acetate [1],"degradation or decarboxylation in the extruded samples ([4]; continuous, solvent-free, polymer assisted hot melt extrusion)","degradation on hot melt extrusion processing (mass spectroscopy) ([4]; processed with saccharin by HME at 200° C., 180° C., 170° C. and 160° C., no polymer carrier)",effect of Kollidon VA64 on decomposition of mefenamic acid [5],Compound,Log P [2],pKa [3]
Yes,No,Yes,Yes,–,–,–,O=C1NS(=O)(=O)c2ccccc21 [Saccharin],0.91,1.31
No,Yes,No,Yes,no degradation or decarboxylation,decarboxylation,can delay the decomposition,Cc1cccc(Nc2ccccc2C(=O)O)c1C [Mefenamic acid],–,–
